Data: publication PMC6273715, “Synthesis and Evaluation of New Benzodioxole- Based Thiosemicarbazone Derivatives as Potential Antitumor Agents” (Molecules, 2016)

Tests used:
ribonucleotide reductase = system: ribonucleotide reductase; design: method as in PMID 21425997, PMID 22655252, PMID 22963201, PMID 19601577, PMID 26335599; conditions: both enzyme and cell assays; cited from earlier work
A549 cells [1] = test: Mitochondrial membrane potential (JC-1) flow cytometry, A549; assay type: cell-based, human; conditions: IC50 dose, 24 h
Experimental: (§1) During apoptosis, several key events occur in mitochondria including the release of cytochrome c, changes in electron transport, and loss of mitochondrial transmembrane potential (ΔΨm). For this reason, ΔΨm is an important parameter of mitochondrial function in apoptosis.
(§2) The cells were seeded in six-well plates at a density of 10^5 cells/mL, and the IC50 dose of compounds 2, 5 and 10 was added to cells. The cells were incubated in 5% CO2 air-conditioned atmosphere at 37 °C. […] 5,5′,6,6′-Tetrachloro-1,1′,3,3′-tetraethylbenzimidazolylcarbocyanine iodide (JC-1) dye solution (1× assay buffer + JC-1 stock solution) was added to the cells. The stock solution was prepared by dissolving DMSO. Then the samples were incubated at a temperature of 37 °C for 10–15 min. After incubation, the cells were washed twice with an assay buffer and analyzed by BD FACS Aria Cell Sorter Software version 6.1.1 flow cytometry (BD Biosciences). The cells showing mitochondrial membrane potential disruption were determined as a percentage of all cells.

SIRT1 = test: Sirtuin-1 detection by ELISA in C6 glioma cells; assay type: cell-based, rat; conditions: 24 h
C6 cells [2] = test: DNA synthesis inhibition (BrdU ELISA), C6; assay type: cell-based, rat; conditions: C6, compound at its IC50, 24 h
Experimental: (§3) The immunostaining procedure was carried out with specific anti-BrdU antibodies in the S-phase of the cell cycle. DNA synthesis inhibitory effects of all compounds were evaluated for 24 h. A549 and C6 cell lines were incubated with three different concentrations of the compounds that were determined according to their IC50 values. Cisplatin was used as a positive control.
(§4) Analysis of DNA synthesis was measured by a Cell Proliferation ELISA, BrdU (colorimetric) kit (Roche, Mannheim, Germany). This immunostaining procedure is based on measuring the incorporation of bromodeoxyuridine (BrdU) into nuclear DNA in place of thymidine during the S-phase of the cell cycle using specific anti-BrdU antibodies. […] Firstly cells were seeded into 96 well flat-bottomed microtiter plates at a density of 2 × 10^3. […] Microtiter plates were incubated at 37 °C in a 5% CO2/95% air humidified atmosphere for 24 h. Cells were labeled with 10 µL BrdU solution for 2 h and then fixed. Anti-BrdU-POD (100 µL) was added and incubated for 90 min. Finally, wells were washed with BPS and cells were incubated with substrate. Absorbance of the samples was measured with an ELX808-IU Bio-Tek apparatus at 492 nm. All experiments were repeated two times. For each compound dose, dublicate wells were used.

[3] = system: A549 human lung adenocarcinoma cells; test: MTT cytotoxicity assay, A549; assay type: cell-based; conditions: MTT, 24 h; read-out: IC50 A549 Cell Line
Experimental: (§5) C6 Rat glioma and NIH/3T3 mouse embryonic fibroblast cells were incubated in Dulbecco’s Modified Eagle’s Medium (DMEM) (Sigma, Deisenhofen, Germany) supplemented with 10% fetal calf serum (Gibco, Paisley, UK). A549 Human lung adenocarcinoma cells were incubated in 90% RPMI supplemented with 10% fetal bovine serum (Gibco). […] Exponentially growing cells were plated at 2 × 10^4 cells/mL into 96-well microtiter tissue culture plates (Nunc, Roskilde, Denmark) and incubated for 24 h before the addition of the drugs (the optimum cell number for cytotoxicity assays was determined in preliminary experiments).
(§6) The level of cellular 3-(4,5-dimethylthiazol-2-yl)-2,5-diphenyltetrazolium bromide (MTT) (Sigma) reduction was quantified as previously described in the literature with small modifications. […] At the end of this period, MTT was added to a final concentration of 0.5 mg/mL and the cells were incubated for 4 h at 37 °C. After the medium was removed, the formazan crystals formed by MTT metabolism were solubilized by addition of 200 µL DMSO to each well and absorbance was read at 540 nm with a microtiter plate spectrophotometer (Bio-Tek Plate Reader, Winooski, VT, USA). Every concentration was repeated in three wells.

A549 cells [4] = test: DNA synthesis inhibition (BrdU ELISA), A549; assay type: cell-based, human; conditions: A549, compound at its IC50, 24 h
Experimental: as §3, §4

C6 cells [5] = test: Mitochondrial membrane potential (JC-1) flow cytometry, C6; assay type: cell-based, rat; conditions: IC50 dose, 24 h
Experimental: as §1, §2

A549 cells [6] = test: Annexin V-PI flow cytometry of apoptosis, A549; assay type: cell-based; conditions: IC50 dose, 24 h
Experimental: (§7) Annexin V staining protocol was applied according to the manufacturer’s instructions (BD Pharmingen). The cells were then briefly washed with cold phosphate buffer saline (PBS) and suspended in a binding buffer at a concentration of 1 × 10^6 cells/mL. Then, 100 µL of this solution containing 1 × 10^5 cells was transferred to a 5 mL test tube. After 5 µL of Annexin-V and PI was added, the cells were incubated for 15 min at room temperature in the dark. Then 400 µL of 1x Binding Buffer was added to each tube and the cells were processed for data acquisition, and analyzed on a Becton–Dickinson FACS Aria using […] Version 6.1.1. Software (BD Biosciences, San Jose, CA, USA).

C6 cells [7] = test: Annexin V-PI flow cytometry of apoptosis, C6; assay type: cell-based; conditions: IC50 dose, 24 h
Experimental: as §7

C6 rat glioma cells = test: MTT cytotoxicity assay, C6; assay type: cell-based; conditions: MTT, 24 h; read-out: IC50 C6 Cell Line
Experimental: as §5, §6

Row | SMILES | potency relative to hydroxyurea (ribonucleotide reductase) | P2 (%) mitochondrial membrane polarized cells, A549 Cells (A549 cells [1]) | P3 (%) mitochondrial membrane depolarized cells, A549 Cells (A549 cells [1]) | SIRT1 Concentration (SIRT1; IC50/2 concentration) | SIRT1 Concentration (SIRT1; IC50 concentration) | DNA synthesis inhibition percent (C6 cells [2]) | IC50 [3] | DNA synthesis inhibition percent (A549 cells [4]) | P2 (%) mitochondrial membrane polarized cells, C6 Cells (C6 cells [5]) | P3 (%) mitochondrial membrane depolarized cells, C6 Cells (C6 cells [5]) | Early and Late Apoptotic Cells % A549 Cells (A549 cells [6]) | Early and Late Apoptotic Cells % C6 Cells (C6 cells [7]) | IC50 (C6 rat glioma cells)
1 | NC(=S)NN=Cc1ncccc1N [Triapine, 3-aminopyridine-2-carboxaldehyde thiosemicarbazone] | 1000 times |  |  |  |  |  |  |  |  |  |  |  | 
2 | N.N.[Cl][Pt][Cl] [Cisplatin, reference compound] |  | 41.4% | 54.0% | 4.53 ± 1.37 ng/mL | 3.32 ± 1.41 ng/mL | 53.95% | 3 ± 0.88 µM | 55.73% | 46.6% | 48.4% | 32.4% | 16.3% | 6.83 ± 0.28 µM
